The text below walks through data of patent publication US9839639B2, “Neprilysin inhibitors” (THERAVANCE BIOPHARMA R&D IP, LLC, priority 2014, dated 2017).

Series [1] can be described thus: Rat PO cassette assay (oral bioavailability). The class given is in vivo. The following applies: plasma, male Sprague-Dawley rats, single oral gavage vs intravenous dose, 0.5 mg/kg, read-out: % F (oral bioavailability). The text has this: Oral bioavailability, or % F, is a measure of the percentage of a drug in an oral dose that actually reaches the systemic circulation. Compound losses can occur due to incomplete formulation dissolution, incomplete absorption due to compound insolubility or instability along the GI, or metabolism in the gut or across the gut wall. The fraction of the dose which reaches the hepatic portal vein must also then pass through the liver before reaching the systemic circulation. Compound metabolism, or “first-pass extraction,” can occur during this initial passage through the liver, and this is an additional potential source of compound loss. Oral bioavailability is calculated as the dose-normalized ratio of drug exposure after an oral dose to that after an intravenous dose, wherein the entire dose is delivered directly to the systemic circulation.
Each cassette study begins with 10 mM DMSO stock solutions of up to 5 different compounds. Typically, compounds are selected such no two compounds dosed in the same cassette have a molecular weight within 5 Da of each other. This simplifies subsequent bioanalysis. Appropriate volumes of each DMSO stock are added into a volume of vehicle (5% sodium bicarbonate, 5% dextrose in H2O) such that the final concentration of each compound is 0.25 mg/mL. Intravenous dosing solutions are sterile-filtered (0.2 μm) prior to dosing.
Pre-cannulated male Sprague-Dawley rats (3 per cassette per route) between 8 and 10 weeks of age were obtained from Harlan Laboratories (Indianapolis, Ind.). Rats received either a single oral gavage or a single intravenous (via lateral tail vein) dose (2 mL/kg) of the dosing solution. The final dose was 0.5 mg/kg. Serial blood samples were harvested via jugular vein cannula at 3 minutes, 15 minutes, 30 minutes, 1 hours, 2 hours, 4 hours, 6 hours, and 24 hours post-dose. Sampling was performed either manually or using automated blood samplers. Samples were collected into microtainer tubes containing EDTA as the anticoagulant and are processed to plasma by refrigerated centrifugation.
Plasma samples were extracted with 3 volumes of MeCN containing a suitable internal standard. Extracts were reconstituted into 3 volumes of water containing 1% formic acid, and analyzed via HPLC-coupled MS/MS. Plasma concentration-time data were analyzed using the Phoenix software (Pharsight Corp., St. Louis, Mo.) to calculate pharmacokinetic parameters.
Compounds of the invention of particular interest were those having a % F>10%, when tested in this assay.

Another series has as its target T1, human NEP (Homo sapiens, UniProt P08473).
T1 construct: purchased R&D Systems, Minneapolis, Minn; 1182-ZN
The experiment in a line: In vitro enzyme inhibition assay, inhibitor potency at human NEP. The class given is biochemical. As to conditions: recombinant human NEP, fluorogenic peptide substrate 10 μM, 37° C.; values given as ranges. The procedure: The inhibitory activities of compounds at human and rat neprilysin (EC 3.4.24.11; NEP) and human angiotensin converting enzyme (ACE) were determined using in vitro assays as described below.
Recombinant human NEP and recombinant human ACE were obtained commercially (R&D Systems, Minneapolis, Minn., catalog numbers 1182-ZN and 929-ZN, respectively). The fluorogenic peptide substrate Mca-D-Arg-Arg-Leu-Dap-(Dnp)-OH (Medeiros et al. (1997) Braz. J. Med. Biol. Res. 30:1157-62; Anaspec, San Jose, Calif.) and Abz-Phe-Arg-Lys(Dnp)-Pro-OH (Araujo et al. (2000) Biochemistry 39:8519-8525; Bachem, Torrance, Calif.) were used in the NEP and ACE assays respectively.
The assays were performed in 384-well white opaque plates at 37° C. using the fluorogenic peptide substrates at a concentration of 10 μM in Assay Buffer (NEP: 50 mM HEPES, pH 7.5, 100 mM NaCl, 0.01% polyethylene glycol sorbitan monolaurate (Tween-20), 10 μM ZnSO4; ACE: 50 mM HEPES, pH 7.5, 100 mM NaCl, 0.01% Tween-20, 1 μM ZnSO4).
Test compounds were assayed over the range of concentrations from 10 μM to 20 pM. Test compounds were added to the enzymes and incubated for 30 minute at 37° C. prior to initiating the reaction by the addition of substrate. Reactions were terminated after 20 minutes of incubation at 37° C. by the addition of glacial acetic acid to a final concentration of 3.6% (v/v).
Plates were read on a fluorometer with excitation and emission wavelengths set to 320 nm and 405 nm, respectively. Inhibition constants were obtained by nonlinear regression of the data using the equation (GraphPad Software, Inc., San Diego, Calif.): v=v0/[1+(I/K′)] where v is the reaction rate, v0 is the uninhibited reaction rate, I is the inhibitor concentration and K′ is the apparent inhibition constant.
Compounds of the invention were tested in this assay and found to have pKi values at human NEP as follows.

Molecules are shown by their SMILES.

T1 sequence (P08473 52-750 limits assumed): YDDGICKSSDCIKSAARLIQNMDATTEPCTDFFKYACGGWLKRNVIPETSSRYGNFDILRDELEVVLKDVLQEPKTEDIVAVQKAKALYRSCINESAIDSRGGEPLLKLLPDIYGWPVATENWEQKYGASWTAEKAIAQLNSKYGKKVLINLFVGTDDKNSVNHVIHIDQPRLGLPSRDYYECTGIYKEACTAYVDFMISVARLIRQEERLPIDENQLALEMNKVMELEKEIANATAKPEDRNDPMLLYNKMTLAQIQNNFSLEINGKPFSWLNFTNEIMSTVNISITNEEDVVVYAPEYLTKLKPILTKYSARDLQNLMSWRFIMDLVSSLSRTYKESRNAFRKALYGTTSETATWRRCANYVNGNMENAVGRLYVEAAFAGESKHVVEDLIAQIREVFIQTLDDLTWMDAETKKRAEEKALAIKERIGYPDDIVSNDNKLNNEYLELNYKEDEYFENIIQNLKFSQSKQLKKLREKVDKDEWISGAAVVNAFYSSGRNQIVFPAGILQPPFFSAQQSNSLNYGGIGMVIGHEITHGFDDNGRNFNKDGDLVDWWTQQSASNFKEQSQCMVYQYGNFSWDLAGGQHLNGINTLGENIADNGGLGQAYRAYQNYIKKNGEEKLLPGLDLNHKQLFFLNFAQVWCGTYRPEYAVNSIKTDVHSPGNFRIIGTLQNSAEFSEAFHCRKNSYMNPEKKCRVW

The term bioavailability denotes dose-corrected exposure relative to a reference, in per cent. The Ki is the equilibrium dissociation constant of an inhibitor or competing ligand from its target. For `CCC(CO)(C[C@@H](Cc1ccc(-c2cc(Cl)ccc2F)cc1)NC(=O)c1cnn[nH]1)C(=O)O` (single isomer, unassigned) [Example 14a], in series [1], the bioavailability was more than 10%. In addition, on human NEP, the Ki was not above 1 nM.

In the case of `CCCC(CO)(C[C@@H](Cc1ccc(-c2cc(Cl)ccc2F)cc1)NC(=O)c1cnn[nH]1)C(=O)O` (single isomer, unassigned) [Example 15a], the bioavailability in series [1] is more than 10%. Also, on human NEP, the Ki was not above 1 nM.

As for `O=C(N[C@H](Cc1ccc(-c2cc(Cl)ccc2F)cc1)CC1(C(=O)O)CCOC1)c1cnn[nH]1` (single isomer, unassigned) [Example 20a], the bioavailability in series [1] is more than 10%. The Ki at human NEP is not above 1 nM.

With `CCOC[C@](C)(C[C@@H](Cc1ccc(-c2cccc(Cl)c2)cc1)NC(=O)c1noc(=O)[nH]1)C(=O)O` [Example 9, (2S,4R)-5-(3′-Chlorobiphenyl-4-yl)-2-ethoxymethyl-2-methyl-4-[(5-oxo-4,5-dihydro-[1,2,4]oxadiazole-3-carbonyl)amino]pentanoic Acid], in series [1], the bioavailability was more than 10%. For the same compound, the Ki at human NEP is not above 1 nM.

As to `CCOC[C@](C)(C[C@@H](Cc1ccc(-c2cc(Cl)ccc2F)cc1)NC(=O)c1coc(C2CC2)n1)C(=O)O` [Example 10, (2S,4R)-5-(5′-Chloro-2′-fluorobiphenyl-4-yl)-4-[(2-cyclopropyoxazole-4-carbonyl)amino]-2-ethoxymethyl-2-methylpentanoic Acid], the Ki on human NEP is 1.26 to 3.16 nM.

As for `CCOC[C@](C)(C[C@@H](Cc1ccc(-c2cc(Cl)ccc2F)cc1)NC(=O)c1ncco1)C(=O)O` [Example 11-1, (2S,4R)-5-(5′-Chloro-2′-fluorobiphenyl-4-yl)-2-ethoxymethyl-2-methyl-4-[(oxazole-2-carbonyl)amino]pentanoic acid], the Ki on human NEP is 1.26 to 3.16 nM.

As to `CCOC[C@](C)(C[C@@H](Cc1ccc(-c2cc(Cl)ccc2F)cc1)NC(=O)c1ccc(Cl)cn1)C(=O)O` [Example 11-2, (2S,4R)-5-(5′-Chloro-2′-fluorobiphenyl-4-yl)-4-[(5-chloropyridine-2-carbonyl)amino]-2-ethoxymethyl-2-methylpentanoic acid], the Ki at human NEP is not above 1 nM.

Take `CCOC[C@](C)(C[C@@H](Cc1ccc(-c2cc(Cl)ccc2F)cc1)NC(=O)c1ncccn1)C(=O)O` [Example 11-3, (2S,4R)-5-(5′-Chloro-2′-fluorobiphenyl-4-yl)-2-ethoxymethyl-2-methyl-4-[(pyrimidine-2-carbonyl)amino]pentanoic acid]: the Ki on human NEP was 1.26 to 3.16 nM.

In the case of `CCOC[C@](C)(C[C@@H](Cc1ccc(-c2cc(Cl)ccc2F)cc1)NC(=O)c1n[nH]nc1C)C(=O)O` [Example 11-4, (2S,4R)-5-(5′-Chloro-2′-fluorobiphenyl-4-yl)-2-ethoxymethyl-2-methyl-4-[(5-methyl-2H-[1,2,3]triazole-4-carbonyl)amino]pentanoic acid], the bioavailability in series [1] was more than 10%. The Ki on human NEP was 1.26 to 3.16 nM.

With `NCCC(CO)(C[C@@H](Cc1ccc(-c2cc(Cl)ccc2F)cc1)NC(=O)c1cnn[nH]1)C(=O)O` (stereo partly drawn) [Example 17, (R)-2-(2-Amino-ethyl)-5-(5′-chloro-2′-fluorobiphenyl-4-yl)-2-hydroxymethyl-4-[(3H-[1,2,3]triazole-4-carbonyl)amino]pentanoic Acid], the Ki at human NEP is 1.26 to 3.16 nM.

Consider `CC(=O)NCCC(CO)(C[C@@H](Cc1ccc(-c2cc(Cl)ccc2F)cc1)NC(=O)c1cnn[nH]1)C(=O)O` (stereo partly drawn) [Example 18, (R)-2-(2-Acetylaminoethyl)-5-(5′-chloro-2′-fluorobiphenyl-4-yl)-2-hydroxymethyl-4-[(3H-[1,2,3]triazole-4-carbonyl)amino]pentanoic Acid], for which the Ki at human NEP is not above 1 nM.
